Assay results from publication PMC10689823, “Discovery of a Drug-like, Natural Product-Inspired DCAF11 Ligand Chemotype” (Nature Communications, 2023).

Target: BRD4S-TagBFP reporter (Homo sapiens, UniProt O60885)
Assay: FACS-based CRISPR/Cas9 BRD4 protein stability screen
Method: The virus containing supernatant was cleared of cellular debris by filtration through a 0.45-µm PES filter and used to transduce KBM7 BRD4-BFP reporter cells harboring a doxycycline inducible Cas9 allele at a multiplicity of infection (MOI) of 0.05 and 1,000-fold library representation. Library-transduced cells were selected with G418 (1 mg ml^−1, Gibco) for 14 days, expanded and Cas9 expression was induced with DOX (0.4 µg ml^−1, PanReac AppliChem).
Cells were washed with and stored in FACS buffer (PBS containing 5% FBS and 1 mM EDTA) at 4 °C overnight. The next day, cells were strained trough a 35 µm nylon mesh and sorted on a BD FACSAria™ Fusion (BD Biosciences) using a 85 µm nozzle. Aggregates, dead (ZombieNIR positive), Cas9-negative (GFP) and sgRNA library-negative (Thy1.1-APC) cells were excluded, and the remaining cells were sorted based on their BRD4-BFP and mCherry levels into BRD4^HIGH (10% of cells), BRD4^MID (30%) and BRD4^LOW (10%) fractions. For each sample, cells corresponding to at least 2,000-fold library representation were sorted per replicate.
Next-generation sequencing (NGS) libraries of sorted cell fractions were prepared as previously described[25]. In brief, genomic DNA was isolated by cell lysis (10 mM Tris-HCl, 150 mM NaCl, 10 mM EDTA, 0.1% SDS), proteinase K treatment (New England Biolabs) and DNAse-free RNAse digest (Thermo Fisher Scientific), followed by two rounds of phenol extraction and 2-propanol precipitation. Isolated genomic DNA was subjected to several freeze–thaw cycles before nested polymerase chain reaction (PCR) amplification of the sgRNA cassette.
Barcoded NGS libraries for each sorted population were generated using a two-step PCR protocol using AmpliTaq Gold (Invitrogen). The resulting PCR products were purified using Mag-Bind® TotalPure NGS beads (Omega Bio-tek) and amplified in a second PCR introducing the standard Illumina adapters. The final Illumina libraries were bead-purified, pooled and sequenced on a HiSeq 3500 platform (Illumina).
Screen analysis was performed as previously described[25]. Briefly, sequencing reads were quantified using the crispr-process-nf Nextflow workflow, available at https://github.com/ZuberLab/crispr-process-nf/tree/566f6d46bbcc2a3f49f51bbc96b9820f408ec4a3. For statistical analysis, we used the crispr-mageck-nf Nextflow workflow, available at https://github.com/ZuberLab/crispr-mageck-nf/tree/c75a90f670698bfa78bfd8be786d6e5d6d4fc455. To calculate gene-level enrichment, the sorted populations (BRD4^HIGH or BRD4^LOW) were compared to the BRD4^MID populations in MAGeCK (0.5.9)[46], using median normalized read counts.

Cc1sc2c(c1C)C(c1ccc(Cl)cc1)=NC(CC(=O)NCCOCCOCCOCCOc1c(Br)cc(C=C3C(=O)Nc4ccc(Br)cc43)cc1Br)c1nnc(C)n1-2 (stereo not drawn) [Compound 10]
Low_lfc (Gene FBXL18, Mageck_Gene level): 0.15
Low_logP (Gene FBXL18, Mageck_Gene level): 0.58
High_lfc (Gene FBXL19, Mageck_Gene level): -0.07
High_logP (Gene FBXL19, Mageck_Gene level): 0.17
Low_lfc (Gene FBXL19, Mageck_Gene level): 0.26
Low_logP (Gene FBXL19, Mageck_Gene level): 0.97
High_lfc (Gene FBXL20, Mageck_Gene level): 0.09
High_logP (Gene FBXL20, Mageck_Gene level): 0.36
Low_lfc (Gene FBXL20, Mageck_Gene level): -0.03
Low_logP (Gene FBXL20, Mageck_Gene level): 0.19
High_lfc (Gene FBXL21, Mageck_Gene level): 0.06
High_logP (Gene FBXL21, Mageck_Gene level): 0.36
Low_lfc (Gene FBXL21, Mageck_Gene level): -0.13
Low_logP (Gene FBXL21, Mageck_Gene level): 0.07
High_lfc (Gene FBXL22, Mageck_Gene level): 0.4
Low_lfc (Gene FBXL22, Mageck_Gene level): 0.39
Low_logP (Gene FBXL22, Mageck_Gene level): 1.13
High_lfc (Gene FBXO2, Mageck_Gene level): 0.07
High_logP (Gene FBXO2, Mageck_Gene level): 0.12
Low_lfc (Gene FBXO2, Mageck_Gene level): -0.12
Low_logP (Gene FBXO2, Mageck_Gene level): 0.08
High_lfc (Gene FBXO10, Mageck_Gene level): 0.07
High_logP (Gene FBXO10, Mageck_Gene level): 0.21
Low_lfc (Gene FBXO10, Mageck_Gene level): -0.41
Low_logP (Gene FBXO10, Mageck_Gene level): 0.06
High_lfc (Gene FBXO11, Mageck_Gene level): -0.62
High_logP (Gene FBXO11, Mageck_Gene level): 0
Low_lfc (Gene FBXO11, Mageck_Gene level): 0.03
Low_logP (Gene FBXO11, Mageck_Gene level): 0.18
High_lfc (Gene FBXO15, Mageck_Gene level): -0.25
High_logP (Gene FBXO15, Mageck_Gene level): 0.04
Low_lfc (Gene FBXO15, Mageck_Gene level): -0.28
Low_logP (Gene FBXO15, Mageck_Gene level): 0.22
High_lfc (Gene FBXO16, Mageck_Gene level): -0.06
High_logP (Gene FBXO16, Mageck_Gene level): 0.3
Low_lfc (Gene FBXO16, Mageck_Gene level): -0.09
Low_logP (Gene FBXO16, Mageck_Gene level): 0.14
High_lfc (Gene FBXO17, Mageck_Gene level): -0.2
High_logP (Gene FBXO17, Mageck_Gene level): 0.06
Low_lfc (Gene FBXO17, Mageck_Gene level): 0.03
Low_logP (Gene FBXO17, Mageck_Gene level): 0.49
High_lfc (Gene FBXO18, Mageck_Gene level): -0.14
High_logP (Gene FBXO18, Mageck_Gene level): 0.12
Low_lfc (Gene FBXO18, Mageck_Gene level): 0.16
Low_logP (Gene FBXO18, Mageck_Gene level): 0.25
High_lfc (Gene FBXO21, Mageck_Gene level): 0.22
High_logP (Gene FBXO21, Mageck_Gene level): 0.42
Low_lfc (Gene FBXO21, Mageck_Gene level): 0
Low_logP (Gene FBXO21, Mageck_Gene level): 0.2
High_lfc (Gene FBXO22, Mageck_Gene level): -0.12
High_logP (Gene FBXO22, Mageck_Gene level): 0.02
Low_lfc (Gene FBXO22, Mageck_Gene level): 0.34
Low_logP (Gene FBXO22, Mageck_Gene level): 0.76
High_lfc (Gene FBXO24, Mageck_Gene level): -0.07
High_logP (Gene FBXO24, Mageck_Gene level): 0.15
Low_lfc (Gene FBXO24, Mageck_Gene level): 0.03
Low_logP (Gene FBXO24, Mageck_Gene level): 0.43
High_lfc (Gene FBXO25, Mageck_Gene level): -0.22
High_logP (Gene FBXO25, Mageck_Gene level): 0.18
Low_lfc (Gene FBXO25, Mageck_Gene level): -0.04
Low_logP (Gene FBXO25, Mageck_Gene level): 0.27
High_lfc (Gene FBXO27, Mageck_Gene level): -0.12
High_logP (Gene FBXO27, Mageck_Gene level): 0.16
Low_lfc (Gene FBXO27, Mageck_Gene level): 0.09
Low_logP (Gene FBXO27, Mageck_Gene level): 0.72
High_lfc (Gene FBXO28, Mageck_Gene level): 0.16
High_logP (Gene FBXO28, Mageck_Gene level): 0.49
Low_lfc (Gene FBXO28, Mageck_Gene level): -0.29
Low_logP (Gene FBXO28, Mageck_Gene level): 0.02
High_lfc (Gene FBXO30, Mageck_Gene level): -0.1
High_logP (Gene FBXO30, Mageck_Gene level): 0.16
Low_lfc (Gene FBXO30, Mageck_Gene level): 0.12
Low_logP (Gene FBXO30, Mageck_Gene level): 0.1
High_lfc (Gene FBXO31, Mageck_Gene level): 0.04
High_logP (Gene FBXO31, Mageck_Gene level): 0.36
Low_lfc (Gene FBXO31, Mageck_Gene level): -0.01
Low_logP (Gene FBXO31, Mageck_Gene level): 0.26
High_lfc (Gene FBXO32, Mageck_Gene level): 0.06
High_logP (Gene FBXO32, Mageck_Gene level): 0.08
Low_lfc (Gene FBXO32, Mageck_Gene level): 0.38
Low_logP (Gene FBXO32, Mageck_Gene level): 0.68
High_lfc (Gene FBXO33, Mageck_Gene level): -0.54
High_logP (Gene FBXO33, Mageck_Gene level): 0
Low_lfc (Gene FBXO33, Mageck_Gene level): -0.07
Low_logP (Gene FBXO33, Mageck_Gene level): 0.18
High_lfc (Gene FBXO34, Mageck_Gene level): 0.15
High_logP (Gene FBXO34, Mageck_Gene level): 0.29
Low_lfc (Gene FBXO34, Mageck_Gene level): -0.13
Low_logP (Gene FBXO34, Mageck_Gene level): 0.33
High_lfc (Gene FBXO36, Mageck_Gene level): -0.26
High_logP (Gene FBXO36, Mageck_Gene level): 0.21
Low_lfc (Gene FBXO36, Mageck_Gene level): 0.2
Low_logP (Gene FBXO36, Mageck_Gene level): 0.47
High_lfc (Gene FBXO38, Mageck_Gene level): -0.33
High_logP (Gene FBXO38, Mageck_Gene level): 0.02
Low_lfc (Gene FBXO38, Mageck_Gene level): 0.01
Low_logP (Gene FBXO38, Mageck_Gene level): 0.38
High_lfc (Gene FBXO39, Mageck_Gene level): 0.06
High_logP (Gene FBXO39, Mageck_Gene level): 0.22
Low_lfc (Gene FBXO39, Mageck_Gene level): 0.01
Low_logP (Gene FBXO39, Mageck_Gene level): 0.18
CRL substrate receptor scoring as top hit (gene required for BRD4 degradation) (KBM7 BRD4-BFP reporter cells, 9 0.5 µM, 10 1 µM, dBET6 10 nM, 6 hours): DCAF11
High_lfc (gene FBXO3): 0.34
High_logP (gene FBXO3): 0.33
Low_lfc (gene FBXO3): -0.08
Low_logP (gene FBXO3): 0.04
High_lfc (gene FBXO4): 0.05
High_logP (gene FBXO4): 0.31
Low_lfc (gene FBXO4): -0.07
Low_logP (gene FBXO4): 0.01
High_lfc (gene FBXO5): 0.23
High_logP (gene FBXO5): 0.83
Low_lfc (gene FBXO5): -0.27
Low_logP (gene FBXO5): 0.05
High_lfc (gene FBXO6): -0.06
High_logP (gene FBXO6): 0.34
Low_lfc (gene FBXO6): -0.26
Low_logP (gene FBXO6): 0.15
High_lfc (gene FBXO7): -0.21
High_logP (gene FBXO7): 0
Low_lfc (gene FBXO7): -0.1
Low_logP (gene FBXO7): 0.14
High_lfc (gene FBXO8): -0.41
High_logP (gene FBXO8): 0.01
Low_lfc (gene FBXO8): -0.3
Low_logP (gene FBXO8): 0.02
High_lfc (gene FBXO9): -0.11
High_logP (gene FBXO9): 0.02
Low_lfc (gene FBXO9): -0.13
Low_logP (gene FBXO9): 0.09
High_lfc (gene FBXO40): -0.14
High_logP (gene FBXO40): 0.09
Low_lfc (gene FBXO40): -0.23
Low_logP (gene FBXO40): 0.3
High_lfc (gene FBXO41): 0.03
High_logP (gene FBXO41): 0.17
Low_lfc (gene FBXO41): -0.11
Low_logP (gene FBXO41): 0.05
High_lfc (gene FBXO42): 0.02
High_logP (gene FBXO42): 0.05
Low_lfc (gene FBXO42): 0.34
Low_logP (gene FBXO42): 1.46
High_lfc (gene FBXO43): -0.17
High_logP (gene FBXO43): 0.11
Low_lfc (gene FBXO43): -0.15
Low_logP (gene FBXO43): 0.08
High_lfc (gene FBXO44): -0.16
High_logP (gene FBXO44): 0.39
Low_lfc (gene FBXO44): -0.37
Low_logP (gene FBXO44): 0.19
High_lfc (gene FBXO45): -0.07
High_logP (gene FBXO45): 0.11
Low_lfc (gene FBXO45): -0.31
Low_logP (gene FBXO45): 0.11
High_lfc (gene FBXO46): -0.12
High_logP (gene FBXO46): 0.12
Low_lfc (gene FBXO46): 0.18
Low_logP (gene FBXO46): 0.84
High_lfc (gene FBXO47): 0.35
High_logP (gene FBXO47): 0.59
Low_lfc (gene FBXO47): 0.65
Low_logP (gene FBXO47): 1.14
High_lfc (gene FBXO48): -0.14
High_logP (gene FBXO48): 0.09
Low_lfc (gene FBXO48): -0.68
Low_logP (gene FBXO48): 0.01
High_lfc (gene FBXW2): -0.16
High_logP (gene FBXW2): 0.05
Low_lfc (gene FBXW2): -0.15
Low_logP (gene FBXW2): 0.23
High_lfc (gene FBXW4): -0.23
High_logP (gene FBXW4): 0.02
Low_lfc (gene FBXW4): 0.1
Low_logP (gene FBXW4): 0.3
High_lfc (gene FBXW5): -0.14
High_logP (gene FBXW5): 0.29
Low_lfc (gene FBXW5): 0.04
Low_logP (gene FBXW5): 0.25
High_lfc (gene FBXW7): 0.42
High_logP (gene FBXW7): 1.76
Low_lfc (gene FBXW7): 0.03
Low_logP (gene FBXW7): 0.22
High_lfc (gene FBXW8): -0.01
High_logP (gene FBXW8): 0.23
Low_lfc (gene FBXW8): 0.37
Low_logP (gene FBXW8): 0.66
High_logP (gene FBXW9): 0.71
Low_logP (gene FBXW9): 1.01
High_lfc (gene FBXW10): -0.01
High_logP (gene FBXW10): 0.15
Low_lfc (gene FBXW10): -0.13
Low_logP (gene FBXW10): 0.01
High_lfc (gene FBXW11): -0.15
High_logP (gene FBXW11): 0.05
Low_lfc (gene FBXW11): -0.16
Low_logP (gene FBXW11): 0.14
High_lfc (gene FBXW12): -0.01
High_logP (gene FBXW12): 0.11
Low_lfc (gene FBXW12): 0.06
Low_logP (gene FBXW12): 0.36
High_logP (gene FEM1A): 0.33
